Patent US9637483B2, “Heterocyclic compound” (TAKEDA PHARMACEUTICAL COMPANY LIMITED, priority 2013, dated 2017)

Assays:
Format in all cases: biochemical
[1] = target: T1, JAK3 (Homo sapiens, UniProt P52333); assay: JAK3 enzyme inhibition test (LANCE method); settings: 1 μM test compound; read-out: JAK3 enzyme inhibitory activity (%, 1 μM)
T1 construct: purchased Invitrogen
T1 sequence (P52333 1-1124): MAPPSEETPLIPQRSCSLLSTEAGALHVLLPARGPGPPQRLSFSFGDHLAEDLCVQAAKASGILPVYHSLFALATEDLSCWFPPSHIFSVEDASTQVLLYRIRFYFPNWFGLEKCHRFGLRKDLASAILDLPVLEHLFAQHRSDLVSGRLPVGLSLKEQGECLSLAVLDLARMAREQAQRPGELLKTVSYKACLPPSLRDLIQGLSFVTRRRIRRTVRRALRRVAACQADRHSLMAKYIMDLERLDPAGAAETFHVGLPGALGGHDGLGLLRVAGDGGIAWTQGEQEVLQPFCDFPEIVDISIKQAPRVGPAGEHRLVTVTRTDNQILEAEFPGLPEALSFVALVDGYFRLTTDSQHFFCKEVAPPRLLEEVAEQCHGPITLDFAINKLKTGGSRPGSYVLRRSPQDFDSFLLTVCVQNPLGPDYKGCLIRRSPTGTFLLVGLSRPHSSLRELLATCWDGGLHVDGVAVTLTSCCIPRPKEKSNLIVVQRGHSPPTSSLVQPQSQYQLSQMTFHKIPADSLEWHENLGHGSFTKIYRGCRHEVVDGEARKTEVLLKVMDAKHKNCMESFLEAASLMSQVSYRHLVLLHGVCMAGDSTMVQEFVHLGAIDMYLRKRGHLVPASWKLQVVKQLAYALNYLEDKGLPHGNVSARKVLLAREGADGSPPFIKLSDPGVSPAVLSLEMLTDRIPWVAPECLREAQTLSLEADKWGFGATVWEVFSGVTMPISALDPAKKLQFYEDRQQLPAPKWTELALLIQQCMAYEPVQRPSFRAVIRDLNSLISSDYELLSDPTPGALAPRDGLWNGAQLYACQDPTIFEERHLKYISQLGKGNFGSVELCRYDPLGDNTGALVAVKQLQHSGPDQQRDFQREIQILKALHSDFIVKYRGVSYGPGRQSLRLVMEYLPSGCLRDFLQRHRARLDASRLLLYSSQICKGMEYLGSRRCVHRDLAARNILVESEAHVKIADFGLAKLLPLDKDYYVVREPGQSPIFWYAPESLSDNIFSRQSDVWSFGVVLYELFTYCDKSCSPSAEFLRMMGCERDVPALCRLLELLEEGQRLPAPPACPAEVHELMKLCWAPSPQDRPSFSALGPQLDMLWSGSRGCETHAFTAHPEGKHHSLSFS
Procedure, shortened: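 Recombinant JAK3 (12 ng/mL solution) with ULight-JAK1 peptide (300 nM solution) and ATP (15 μM solution) in HEPES pH 7.5 buffer, 1 h at room temperature. EDTA stop with Eu-anti-phosphotyrosine antibody; TR-FRET at 665 nm. Inhibition relative to enzyme-free wells as 100%.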

[2] = target: T2, JAK2 (Homo sapiens, UniProt O60674); assay: JAK2 enzyme inhibition test (LANCE method); settings: 1 μM test compound; read-out: JAK2 enzyme inhibitory activity (%, 1 μM)
T2 construct: purchased Invitrogen
Procedure, shortened: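 Recombinant JAK2 (6 ng/mL solution) phosphorylated ULight-JAK1 peptide (300 nM solution) with ATP (45 μM solution) in pH 7.5 HEPES/MgCl2/DTT buffer for 1 hr at room temperature. After EDTA stop and europium anti-phosphotyrosine antibody for 1 hr, TR-FRET read at 665 nm; inhibition relative to enzyme-free wells as 100%.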

[3] = target: T3, JAK1 (Homo sapiens, UniProt P23458); assay: JAK1 enzyme inhibition test (LANCE method); settings: 1 μM test compound; read-out: JAK1 enzyme inhibitory activity (%, 1 μM)
T3 construct: purchased Invitrogen
Procedure, shortened: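 TR-FRET (LANCE) with ULight-JAK1 peptide (300 nM working solution) and ATP (150 μM working solution) in HEPES pH 7.5, MgCl2, EGTA, DTT buffer; 1 h at room temperature. EDTA stop plus Eu-anti-phosphotyrosine antibody, 665 nm read after 1 h. Inhibition relative to enzyme-free wells as 100%.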

[4] = target: T4, TYK2 (Homo sapiens, UniProt P29597); assay: TYK2 enzyme inhibition test (LANCE method); settings: 1 μM test compound; read-out: TYK2 enzyme inhibitory activity (%, 1 μM)
T4 construct: purchased Invitrogen
Procedure, shortened: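 Recombinant TYK2 (375 ng/mL working solution) with ULight-JAK1 peptide (300 nM working solution) and ATP (30 μM working solution) in HEPES pH 7.5 buffer with MgCl2, EGTA, DTT, Tween20, BSA, reacted 1 h at RT. EDTA-stopped, Eu-anti-phosphotyrosine TR-FRET read at 665 nm; inhibition relative to enzyme-free wells as 100%.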

T3 sequence (P23458 whole entry): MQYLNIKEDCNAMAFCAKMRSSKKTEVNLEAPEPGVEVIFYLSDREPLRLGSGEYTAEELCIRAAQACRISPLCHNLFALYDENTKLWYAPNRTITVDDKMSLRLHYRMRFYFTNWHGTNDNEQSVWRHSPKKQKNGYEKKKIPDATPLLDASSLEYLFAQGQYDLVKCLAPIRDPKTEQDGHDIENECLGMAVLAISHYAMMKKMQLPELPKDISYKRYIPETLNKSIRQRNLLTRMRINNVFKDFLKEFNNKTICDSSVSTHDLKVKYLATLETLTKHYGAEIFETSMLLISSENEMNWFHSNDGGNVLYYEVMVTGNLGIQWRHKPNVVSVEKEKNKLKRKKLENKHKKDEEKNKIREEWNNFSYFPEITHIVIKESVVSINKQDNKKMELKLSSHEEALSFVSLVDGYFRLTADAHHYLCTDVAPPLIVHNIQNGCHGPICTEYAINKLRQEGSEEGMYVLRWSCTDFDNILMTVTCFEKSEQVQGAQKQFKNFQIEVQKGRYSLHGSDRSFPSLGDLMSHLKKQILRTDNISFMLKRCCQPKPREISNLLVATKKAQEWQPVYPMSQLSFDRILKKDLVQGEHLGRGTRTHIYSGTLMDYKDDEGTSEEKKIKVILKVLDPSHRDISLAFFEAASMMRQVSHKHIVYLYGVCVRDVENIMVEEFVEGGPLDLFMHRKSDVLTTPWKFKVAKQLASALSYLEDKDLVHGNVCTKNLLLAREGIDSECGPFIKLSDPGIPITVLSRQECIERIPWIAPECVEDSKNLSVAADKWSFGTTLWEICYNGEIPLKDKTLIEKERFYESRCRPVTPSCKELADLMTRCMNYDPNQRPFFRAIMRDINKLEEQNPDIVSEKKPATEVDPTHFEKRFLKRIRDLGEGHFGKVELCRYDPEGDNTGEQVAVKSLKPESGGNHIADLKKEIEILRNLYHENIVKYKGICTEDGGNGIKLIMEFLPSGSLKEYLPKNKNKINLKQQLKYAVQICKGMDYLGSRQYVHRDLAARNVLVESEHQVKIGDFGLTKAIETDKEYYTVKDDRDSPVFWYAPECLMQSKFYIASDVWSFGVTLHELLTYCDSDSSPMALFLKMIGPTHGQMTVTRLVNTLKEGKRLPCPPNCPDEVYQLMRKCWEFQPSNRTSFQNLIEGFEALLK
T4 sequence (P29597 whole entry): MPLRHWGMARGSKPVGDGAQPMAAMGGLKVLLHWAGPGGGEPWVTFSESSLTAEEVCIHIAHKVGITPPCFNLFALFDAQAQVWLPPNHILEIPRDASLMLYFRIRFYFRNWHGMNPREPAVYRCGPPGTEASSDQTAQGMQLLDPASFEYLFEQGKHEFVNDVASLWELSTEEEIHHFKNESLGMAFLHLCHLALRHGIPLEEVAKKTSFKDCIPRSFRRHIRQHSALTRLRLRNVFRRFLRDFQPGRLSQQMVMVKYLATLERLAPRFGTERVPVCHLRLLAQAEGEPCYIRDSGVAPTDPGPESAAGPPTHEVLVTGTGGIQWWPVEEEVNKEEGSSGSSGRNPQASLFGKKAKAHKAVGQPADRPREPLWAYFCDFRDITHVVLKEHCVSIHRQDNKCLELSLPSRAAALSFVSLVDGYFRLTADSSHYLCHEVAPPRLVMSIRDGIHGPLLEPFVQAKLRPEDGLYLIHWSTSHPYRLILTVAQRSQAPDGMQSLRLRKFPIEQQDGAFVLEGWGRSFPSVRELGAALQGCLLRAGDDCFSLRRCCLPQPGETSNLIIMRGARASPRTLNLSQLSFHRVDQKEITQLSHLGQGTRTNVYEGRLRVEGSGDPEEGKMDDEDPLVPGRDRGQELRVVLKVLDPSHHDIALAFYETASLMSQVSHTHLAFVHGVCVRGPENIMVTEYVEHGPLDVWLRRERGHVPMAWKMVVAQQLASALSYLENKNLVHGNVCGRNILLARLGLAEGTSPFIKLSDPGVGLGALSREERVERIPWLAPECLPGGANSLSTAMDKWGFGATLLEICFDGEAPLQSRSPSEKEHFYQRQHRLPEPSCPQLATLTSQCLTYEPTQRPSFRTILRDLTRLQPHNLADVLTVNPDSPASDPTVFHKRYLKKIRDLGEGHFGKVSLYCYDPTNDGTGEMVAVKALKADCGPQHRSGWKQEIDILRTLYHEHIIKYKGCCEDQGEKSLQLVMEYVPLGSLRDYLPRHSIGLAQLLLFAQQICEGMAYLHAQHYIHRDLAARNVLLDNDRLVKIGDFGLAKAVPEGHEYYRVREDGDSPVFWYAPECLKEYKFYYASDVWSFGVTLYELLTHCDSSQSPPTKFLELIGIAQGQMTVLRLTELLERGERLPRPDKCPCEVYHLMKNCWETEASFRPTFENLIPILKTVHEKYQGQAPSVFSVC
T2 sequence (O60674 whole entry): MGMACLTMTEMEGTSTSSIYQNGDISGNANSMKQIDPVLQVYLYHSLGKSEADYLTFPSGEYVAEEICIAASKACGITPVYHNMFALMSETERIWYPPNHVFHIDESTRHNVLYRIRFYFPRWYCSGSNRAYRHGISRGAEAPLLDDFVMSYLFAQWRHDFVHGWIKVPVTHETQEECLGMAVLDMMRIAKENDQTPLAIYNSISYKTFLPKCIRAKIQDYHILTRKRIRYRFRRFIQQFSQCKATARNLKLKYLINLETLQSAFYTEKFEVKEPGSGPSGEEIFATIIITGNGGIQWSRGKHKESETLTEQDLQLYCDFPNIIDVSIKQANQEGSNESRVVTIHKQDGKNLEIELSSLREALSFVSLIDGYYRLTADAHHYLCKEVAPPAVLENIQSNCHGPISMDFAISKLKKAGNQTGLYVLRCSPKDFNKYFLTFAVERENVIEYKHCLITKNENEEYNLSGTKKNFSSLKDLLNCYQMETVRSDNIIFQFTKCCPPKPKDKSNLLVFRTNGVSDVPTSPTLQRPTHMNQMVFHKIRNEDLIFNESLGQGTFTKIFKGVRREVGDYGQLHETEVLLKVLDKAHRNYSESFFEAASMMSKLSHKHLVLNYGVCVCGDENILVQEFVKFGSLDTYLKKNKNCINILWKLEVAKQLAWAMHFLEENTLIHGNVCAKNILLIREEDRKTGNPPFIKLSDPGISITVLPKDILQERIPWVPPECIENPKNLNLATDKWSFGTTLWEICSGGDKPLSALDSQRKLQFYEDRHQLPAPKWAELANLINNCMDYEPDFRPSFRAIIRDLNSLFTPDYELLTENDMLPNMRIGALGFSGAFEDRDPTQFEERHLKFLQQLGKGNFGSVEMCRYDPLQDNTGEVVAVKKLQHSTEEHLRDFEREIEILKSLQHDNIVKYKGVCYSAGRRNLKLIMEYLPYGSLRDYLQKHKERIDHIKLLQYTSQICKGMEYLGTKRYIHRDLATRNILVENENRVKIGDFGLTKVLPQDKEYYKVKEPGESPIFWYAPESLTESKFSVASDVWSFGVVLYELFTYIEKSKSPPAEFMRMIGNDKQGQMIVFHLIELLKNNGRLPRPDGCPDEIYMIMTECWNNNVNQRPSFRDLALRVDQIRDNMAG

CC(C)[C@H](C)n1cc(-c2cc(N3CCCC3)n(C)n2)c2[nH]nc(N)c2c1=O [Example 27, 3-amino-5-((2S)-3-methylbutan-2-yl)-7-(1-methyl-5-(pyrrolidin-1-yl)-1H-pyrazol-3-yl)-1,5-dihydro-4H-pyrazolo[4,3-c]pyridin-4-one]
inhibition at 1 µM [1]: 100% | inhibition at 1 µM [2]: 98% | inhibition at 1 µM [3]: 98% | inhibition at 1 µM [4]: 100%

CCn1nc(-c2cn([C@@H](C)C(C)C)c(=O)c3c(N)n[nH]c23)cc1N1CCS(=O)(=O)CC1 [Example 28, 3-amino-7-(5-(1,1-dioxidothiomorpholin-4-yl)-1-ethyl-1H-pyrazol-3-yl)-5-((2S)-3-methylbutan-2-yl)-1,5-dihydro-4H-pyrazolo[4,3-c]pyridin-4-one]
inhibition at 1 µM [1]: 95% | inhibition at 1 µM [2]: 90% | inhibition at 1 µM [3]: 78% | inhibition at 1 µM [4]: 98%

CC(C)[C@H](C)n1cc(-c2cc(N3CCS(=O)(=O)CC3)n(CC(F)(F)F)n2)c2[nH]nc(N)c2c1=O [Example 29, 3-amino-7-(5-(1,1-dioxidothiomorpholin-4-yl)-1-(2,2,2-trifluoroethyl)-1H-pyrazol-3-yl)-5-((2S)-3-methylbutan-2-yl)-1,5-dihydro-4H-pyrazolo[4,3-c]pyridin-4-one]
inhibition at 1 µM [1]: 67% | inhibition at 1 µM [2]: 49% | inhibition at 1 µM [3]: 47% | inhibition at 1 µM [4]: 93%

CC(C)[C@H](C)n1cc(-c2cc(N3CCOC(C)(C)C3)n(C)n2)c2[nH]nc(N)c2c1=O [Example 30, 3-amino-7-(5-(2,2-dimethylmorpholin-4-yl)-1-methyl-1H-pyrazol-3-yl)-5-((2S)-3-methylbutan-2-yl)-1,5-dihydro-4H-pyrazolo[4,3-c]pyridin-4-one]
inhibition at 1 µM [1]: 99% | inhibition at 1 µM [2]: 99% | inhibition at 1 µM [3]: 97% | inhibition at 1 µM [4]: 99%

CC1CN(c2cc(-c3cn([C@@H](C)C(C)C)c(=O)c4c(N)n[nH]c34)nn2C)CCO1 (stereo partly drawn) [Example 31, 3-amino-5-((2S)-3-methylbutan-2-yl)-7-(1-methyl-5-(2-methylmorpholin-4-yl)-1H-pyrazol-3-yl)-1,5-dihydro-4H-pyrazolo[4,3-c]pyridin-4-one]
inhibition at 1 µM [1]: 99% | inhibition at 1 µM [2]: 98% | inhibition at 1 µM [3]: 97% | inhibition at 1 µM [4]: 99%

CC(C)[C@H](C)n1cc(-c2cc(N3CCN4CCCC4C3)n(C)n2)c2[nH]nc(N)c2c1=O (stereo partly drawn) [Example 32, 3-amino-7-(5-(hexahydropyrrolo[1,2-a]pyrazin-2 (H)-yl)-1-methyl-1H-pyrazol-3-yl)-5-((2S)-3-methylbutan-2-yl)-1,5-dihydro-4H-pyrazolo[4,3-c]pyridin-4-one]
inhibition at 1 µM [1]: 99% | inhibition at 1 µM [2]: 98% | inhibition at 1 µM [3]: 96% | inhibition at 1 µM [4]: 99%

CC(C)[C@H](C)n1cc(-c2cc(N3CCC(C)(O)C3)n(C)n2)c2[nH]nc(N)c2c1=O (stereo partly drawn) [Example 33, 3-amino-7-(5-(3-hydroxy-3-methylpyrrolidin-1-yl)-1-methyl-1H-pyrazol-3-yl)-5-((2S)-3-methylbutan-2-yl)-1,5-dihydro-4H-pyrazolo[4,3-c]pyridin-4-one]
inhibition at 1 µM [1]: 99% | inhibition at 1 µM [2]: 98% | inhibition at 1 µM [3]: 96% | inhibition at 1 µM [4]: 99%

CC(C)[C@H](C)n1cc(-c2cc(N3CCC4(CC3)COC4)n(C)n2)c2[nH]nc(N)c2c1=O [Example 34, 3-amino-5-((2S)-3-methylbutan-2-yl)-7-(1-methyl-5-(2-oxa-7-azaspiro[3.5]non-7-yl)-1H-pyrazol-3-yl)-1,5-dihydro-4H-pyrazolo[4,3-c]pyridin-4-one]
inhibition at 1 µM [1]: 100% | inhibition at 1 µM [2]: 99% | inhibition at 1 µM [3]: 97% | inhibition at 1 µM [4]: 100%

CC(C)[C@H](C)n1cc(-c2cc(C3(O)CCOCC3)n(C)n2)c2[nH]nc(N)c2c1=O [Example 35, 3-amino-7-(5-(4-hydroxytetrahydro-2H-pyran-4-yl)-1-methyl-1H-pyrazol-3-yl)-5-((2S)-3-methylbutan-2-yl)-1,5-dihydro-4H-pyrazolo[4,3-c]pyridin-4-one]
inhibition at 1 µM [1]: 100% | inhibition at 1 µM [2]: 99% | inhibition at 1 µM [3]: 97% | inhibition at 1 µM [4]: 99%

COCCn1nc(-c2cn([C@@H](C)C(C)C)c(=O)c3c(N)n[nH]c23)cc1C(C)(C)O [Example 36, 3-amino-7-(5-(2-hydroxypropan-2-yl)-1-(2-methoxyethyl)-1H-pyrazol-3-yl)-5-((2S)-3-methylbutan-2-yl)-1,5-dihydro-4H-pyrazolo[4,3-c]pyridin-4-one]
inhibition at 1 µM [1]: 85% | inhibition at 1 µM [2]: 80% | inhibition at 1 µM [3]: 55% | inhibition at 1 µM [4]: 91%

CC(C)[C@H](C)n1cc(-c2cc(C3(O)CCC(F)(F)CC3)n(C)n2)c2[nH]nc(N)c2c1=O [Example 37, 3-amino-7-(5-(4,4-difluoro-1-hydroxycyclohexyl)-1-methyl-1H-pyrazol-3-yl)-5-((2S)-3-methylbutan-2-yl)-1,5-dihydro-4H-pyrazolo[4,3-c]pyridin-4-one]
inhibition at 1 µM [1]: 100% | inhibition at 1 µM [2]: 99% | inhibition at 1 µM [3]: 98% | inhibition at 1 µM [4]: 99%

CC(C)[C@H](C)n1cc(-c2cc(C3(O)CCC3)n(C)n2)c2[nH]nc(N)c2c1=O [Example 38, 3-amino-7-(5-(1-hydroxycyclobutyl)-1-methyl-1H-pyrazol-3-yl)-5-((2S)-3-methylbutan-2-yl)-1,5-dihydro-4H-pyrazolo[4,3-c]pyridin-4-one]
inhibition at 1 µM [1]: 100% | inhibition at 1 µM [2]: 99% | inhibition at 1 µM [3]: 99% | inhibition at 1 µM [4]: 100%

CC(C)[C@H](C)n1cc(-c2cc(C3=CCOCC3)n(C)n2)c2[nH]nc(N)c2c1=O [Example 39, 3-amino-7-(5-(3,6-dihydro-2H-pyran-4-yl)-1-methyl-1H-pyrazol-3-yl)-5-((2S)-3-methylbutan-2-yl)-1,5-dihydro-4H-pyrazolo[4,3-c]pyridin-4-one]
inhibition at 1 µM [1]: 100% | inhibition at 1 µM [2]: 99% | inhibition at 1 µM [3]: 99% | inhibition at 1 µM [4]: 100%

CNC(=O)c1ccc(-c2cc(-c3cn([C@@H](C)C(C)C)c(=O)c4c(N)n[nH]c34)nn2C)cc1 [Example 40, 4-(3-(3-amino-5-((2S)-3-methylbutan-2-yl)-4-oxo-4,5-dihydro-1H-pyrazolo[4,3-c]pyridin-7-yl)-1-methyl-1H-pyrazol-5-yl)-N-methylbenzamide]
inhibition at 1 µM [1]: 99% | inhibition at 1 µM [2]: 98% | inhibition at 1 µM [3]: 99% | inhibition at 1 µM [4]: 100%

CC(C)[C@H](C)n1cc(-c2cc(N3CCOCC3)n(C)n2)c2[nH]nc(N)c2c1=O [Example 41, 3-amino-5-((2S)-3-methylbutan-2-yl)-7-(1-methyl-5-(morpholin-4-yl)-1H-pyrazol-3-yl)-1,5-dihydro-4H-pyrazolo[4,3-c]pyridin-4-one]
inhibition at 1 µM [1]: 100% | inhibition at 1 µM [2]: 99% | inhibition at 1 µM [3]: 97% | inhibition at 1 µM [4]: 101%
